Test results reported in publication PMC10626578, “Designed switch from covalent to non-covalent inhibitors of carboxylesterase Notum activity” (European Journal of Medicinal Chemistry, 2023).
Structures can show the parent of a compound that is named as a salt. Where two headings read alike, the source gives them in different places. Values belong to the compound of their own block, whether it stands above or below them.

What was measured:
[1] = biological target: T1, Notum (core, 81–451C330S) (Homo sapiens, UniProt Q6P988, C330S); test: Notum-OPTS biochemical assay, Notum (81–451C330S); conditions: for IC50 / Notum IC50: >10 = 20–50% inhibition @ 10 μM; for IC50: read-out: Notum IC50; for fold decrease in Notum inhibition compared to 3a: weaker
T1 construct: high-throughput biochemical assay with Notum (81–451C330S) and OPTS as a synthetic fluorescent substrate; made in house
T1 sequence (Q6P988 81-451 C330S): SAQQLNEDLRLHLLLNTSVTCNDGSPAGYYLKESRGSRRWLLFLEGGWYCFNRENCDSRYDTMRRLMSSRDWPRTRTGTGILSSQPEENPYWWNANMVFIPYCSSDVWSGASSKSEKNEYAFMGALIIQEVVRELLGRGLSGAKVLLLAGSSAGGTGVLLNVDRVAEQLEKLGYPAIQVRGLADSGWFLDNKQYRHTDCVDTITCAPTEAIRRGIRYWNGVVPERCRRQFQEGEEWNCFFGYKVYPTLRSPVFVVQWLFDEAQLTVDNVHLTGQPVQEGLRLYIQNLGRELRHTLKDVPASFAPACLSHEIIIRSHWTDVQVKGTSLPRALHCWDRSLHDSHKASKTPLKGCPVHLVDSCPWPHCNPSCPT
Procedure: Notum inhibitors 3–5 (Table 1, Table 2, Table 3, Table 4) were either purchased or prepared using established synthetic methods from readily available starting materials (Scheme 1). Where necessary, the synthesis of many of these amines (e.g. 6) have been reported previously and full details of their preparation have been included in the Experimental Section. Notum inhibition activity was determined using the standard Notum-OPTS biochemical assay using IC50 values. These values were used to compare relative activities with covalent inhibitors under carefully regulated assay conditions. […] Selected inhibitors were screened for inhibition of Notum activity in a TCF/LEF Reporter (Luciferase) cell line with exogenous WNT3a and Notum, and soaked into Notum crystals to determine their binding modes and evidence of MoA.
Methods have been described in detail.

[2] = Stability in mouse liver microsomes; type: in vitro ADME
Procedure: Selected compounds were routinely screened for aqueous solubility in PBS (pH 7.4), transit performance in MDCK-MDR1 cell lines for permeability, and metabolic stability in MLM and HLM as a measure of clearance. The main metabolites and routes of metabolism of 4y were determined in MLM. Assay protocols and additional data are presented in the Supplementary Material (Tables S1–S7). ADME studies reported in this work were performed by WuXi AppTec (Shanghai, China).
Representative assay protocols have been described in detail. ^1,2

[3] = Table 1, mean ± s.d. of n = 2–6, inactive = <20% inhibition @ 10 μM, 2a covalent, IC50 time-dependant
[4] = mouse, read-out: MLM Stability t1/2
[5] = Table 2, mean ± s.d. of n = 4–12
[6] = Table 4, mean ± s.d. of n = 4–8

Compound: CC(=O)n1ccc2ccccc21 [Compound 3b, 1-(1H-Indol-1-yl)ethan-1-one]
IC50 [1, 3]: 5300 ± 1200 nM
fold decrease in Notum inhibition compared to 3a ([1]; vs 3a): 10 fold

Compound: CC(=O)N1Cc2ccccc2C1 [Compound 3d, 1-(Isoindolin-2-yl)ethan-1-one]
IC50 [1, 3]: 2200 ± 400 nM

Compound: CC(=O)N1CCc2ccccc2C1 [Compound 3e, 1-(3,4-Dihydroisoquinolin-2(1H)-yl)ethan-1-one]
IC50 [1, 3]: 8000 ± 2200 nM

Compound: CC(=O)N1CCC(c2ccccc2)C1 (centres unmarked) [Compound 3f, 1-(3-Phenylpyrrolidin-1-yl)ethan-1-one]
Notum IC50 [1, 3]: inactive ^c

Compound: O=C1CCCN1c1ccccc1 [Compound 3g, 1-Phenylpyrrolidin-2-one]
IC50 [1, 3]: > 10000 nM

Compound: CC(=O)N(C)c1ccccc1C [Compound 3h, N-Methyl-N-(o-tolyl)acetamide]
IC50 [1, 3]: > 10000 nM

Compound: CC(=O)n1ncc2ccccc21 [Compound 3k, 1-(1H-Indazol-1-yl)ethan-1-one]
IC50 [1, 3]: > 10000 nM

Compound: CC(=O)n1cnc2ccccc21 [Compound 3l, 1-(1H-Benzo[d]imidazole-1-yl)ethan-1-one]
Notum IC50 [1, 3]: inactive ^c

Compound: CC(=O)N1c2ccccc2CC1C (centres unmarked) [Compound 4a, 1-(2-Methylindolin-1-yl)ethan-1-one]
IC50 [1, 5]: 2400 ± 1200 nM

Compound: CC(=O)N1c2ccccc2C2(C)CC12 (centres unmarked) [Compound 4f, 1-(6b-Methyl-1a,6b-dihydrocyclopropa[b]indol-2(1H)-yl)ethan-1-one]
IC50 [1, 5]: 4100 ± 800 nM

Compound: CC(=O)N1CCc2ccc(Cl)c(Cl)c21 [Compound 4x, 1-(6,7-Dichloroindolin-1-yl)ethan-1-one]
IC50 [1, 5]: 2200 ± 600 nM

Compound: CC(=O)n1ccc2c(Cl)cccc21 [Compound 5c, 1-(4-Chloro-1H-indol-1-yl)ethan-1-one]
IC50 [1, 6]: 730 ± 40 nM

Compound: O=C1OCC2Cc3ccccc3N12 (centres unmarked) [Compound 5h, 9,9a-Dihydro-1H,3H-oxazolo[3,4-a]indol-3-one]
IC50 [1, 6]: 6100 ± 700 nM

Compound: O=C1COCC2Cc3ccccc3N12 (centres unmarked) [Compound 5i, 10,10a-Dihydro-1H-[1,4]oxazino[4,3-a]indol-4(3H)-one]
IC50 [1, 6]: 1600 to 10000 nM

Compound: O=C1CCC2Cc3cc(Cl)ccc3N12 (centres unmarked) [Compound 5j, 7-Chloro-1,2,9,9a-tetrahydro-3H-pyrrolo[1,2-a]indol-3-one]
IC50 [1, 6]: 1200 ± 400 nM

Compound: O=C1CCC2Cc3c(Cl)cccc3N12 (centres unmarked) [Compound 5k, 8-Chloro-1,2,9,9a-tetrahydro-3H-pyrrolo[1,2-a]indol-3-one]
IC50 [1, 6]: 490 ± 30 nM

Compound: CC12CCC(=O)N1c1ccccc1C2 (centres unmarked) [Compound 5l, 3a-Methyl-3,4-dihydro-2H-pyrrolo[1,2-a]indol-1-one]
IC50 [1, 6]: 2100 ± 310 nM

Compound: O=C1N2c3ccccc3CC2CC1(F)F (centres unmarked) [Compound 5m, 2,2-Difluoro-1,2,9,9a-tetrahydro-3H-pyrrolo[1,2-a]indol-3-one]
half-life at 1 h [2, 4]: 16 min

Compound: Clc1ccc2c(c1Cl)CCN2 [Compound 5n, 4,5-Dichloroindoline]
IC50 [1, 6]: 3600 ± 670 nM

Compound: CCN1CCc2c(Cl)cccc21 [Compound 5o, 4-Chloro-1-ethylindoline hydrochloride]
IC50 [1, 6]: > 10000 nM

More lines, now with the values ahead:

IC50 [1, 3]: 400 ± 110 nM
LE ([1]; ligand efficiency from Notum OPTS IC50): 0.75
LLE ([1]; lipophilic ligand efficiency from Notum OPTS IC50 and clogP): 5.0
fold more potent than 2b (Notum IC50) ([1]; vs 2b): 7 fold
MLM Stability Cli [2]: 180 µL/min/mg protein
half-life [2, 4]: 8 min
Compound: CC(=O)N1CCc2ccccc21 [Compound 3a, 1-(Indolin-1-yl)ethan-1-one]

IC50 [1, 3]: 2500 ± 1000 nM
fold decrease in Notum inhibition compared to 3a ([1]; vs 3a): 6 fold
Compound: CC(=O)N1CCCc2ccccc21 [Compound 3c, 1-(3,4-Dihydroquinolin-1(2H)-yl)ethan-1-one]

IC50 [1, 3]: 690 ± 120 nM
Compound: CC(=O)N1CC(=O)c2ccccc21 [Compound 3i, 1-Acetylindolin-3-one]

IC50 [1, 3]: 3200 ± 660 nM
Compound: CC(=O)N1C(=O)Cc2ccccc21 [Compound 3j, 1-Acetylindolin-2-one]

IC50 [1, 3]: 2800 ± 1800 nM
Compound: CC(=O)N1CCOc2ccccc21 [Compound 3m, 1-(2,3-Dihydro-4H-benzo[b][1,4]oxazin-4-yl)ethan-1-one]

IC50 [1, 3]: 3600 ± 100 nM
Compound: CC(=O)N1CCSc2ccccc21 [Compound 3n, 1-(2,3-Dihydro-4H-benzo[b][1,4]thiazin-4-yl)ethan-1-one]

IC50 [1, 3]: > 10000 nM
Compound: CC(=O)N1CCS(=O)(=O)c2ccccc21 [Compound 3o, 1-(1,1-Dioxido-2,3-dihydro-4H-benzo[b][1,4]thiazin-4-yl)ethan-1-one]

IC50 [1, 5]: 17 ± 2 nM
MLM Stability Cli [2]: 670 µL/min/mg protein
half-life [2, 4]: 2 min
Compound: CC(=O)N1CC2(CC2)c2c1cccc2C(F)(F)F [Compound 4aa, 1-(4'-(Trifluoromethyl)spiro[cyclopropane-1,3′-indolin]-1′-yl)ethan-1-one]

IC50 [1, 5]: 260 ± 80 nM
fold increase in Notum inhibition over 3a ([1]; vs 3a, more potent): 2 fold
Compound: CC(=O)N1CC(C)c2ccccc21 (centres unmarked) [Compound 4b, 1-(3-Methylindolin-1-yl)ethan-1-one]

IC50 [1, 5]: 1400 ± 400 nM
Compound: CC(=O)N1CC(C)(C)c2ccccc21 [Compound 4c, 1-(3,3-Dimethylindolin-1-yl)ethan-1-one]

IC50 [1, 5]: 61 ± 12 nM
MLM Stability Cli [2]: 360 µL/min/mg protein
half-life [2, 4]: 3.8 min
Compound: CC(=O)N1CC2(CC2)c2ccccc21 [Compound 4d, 1-(Spiro[cyclopropane-1,3′-indolin]-1′-yl)ethan-1-one]

IC50 [1, 5]: 1800 ± 1200 nM
Compound: CC(=O)N1CC2(CCC2)c2ccccc21 [Compound 4e, 1-(Spiro[cyclobutane-1,3′-indolin]-1′-yl)ethan-1-one]

IC50 [1, 5]: 95 ± 14 nM
Compound: CC(=O)N1CCc2cc(Cl)ccc21 [Compound 4h, 1-(5-Chloroindolin-1-yl)ethan-1-one]

IC50 [1, 5]: 1400 ± 200 nM
Compound: CC(=O)N1CCc2ccc(Cl)cc21 [Compound 4i, 1-(6-Chloroindolin-1-yl)ethan-1-one]

IC50 [1, 5]: 6400 ± 900 nM
Compound: CC(=O)N1CCc2cccc(Cl)c21 [Compound 4j, 1-(7-Chloroindolin-1-yl)ethan-1-one]

IC50 [1, 5]: 83 ± 16 nM
Compound: CC(=O)N1CCc2c(C)cccc21 [Compound 4k, 1-(4-Methylindolin-1-yl)ethan-1-one]

IC50 [1, 5]: 1500 ± 200 nM
Compound: CC(=O)N1CCc2c(C#N)cccc21 [Compound 4l, 1-Acetylindoline-4-carbonitrile]

IC50 [1, 5]: 93 ± 2 nM
Compound: CC(=O)N1CCc2c(F)cccc21 [Compound 4m, 1-(4-Fluoroindolin-1-yl)ethan-1-one]

IC50 [1, 5]: 670 ± 70 nM
Compound: COc1cccc2c1CCN2C(C)=O [Compound 4n, 1-(4-Methoxyindolin-1-yl)ethan-1-one]

IC50 [1, 5]: 290 ± 140 nM
Compound: CC(=O)N1CCc2c(C3CC3)cccc21 [Compound 4p, 1-(4-Cyclopropylindolin-1-yl)ethan-1-one]

IC50 [1, 5]: 220 ± 20 nM
Compound: CC(=O)N1CCc2cc(C)ccc21 [Compound 4q, 1-(5-Methylindolin-1-yl)ethan-1-one]

IC50 [1, 5]: > 10000 nM
Compound: CC(=O)N1CCc2cc(C#N)ccc21 [Compound 4r, 1-Acetylindoline-5-carbonitrile]

IC50 [1, 5]: 350 ± 40 nM
Compound: CC(=O)N1CCc2cc(F)ccc21 [Compound 4s, 1-(5-Fluoroindolin-1-yl)ethan-1-one]

IC50 [1, 5]: 670 ± 80 nM
Compound: COc1ccc2c(c1)CCN2C(C)=O [Compound 4t, 1-(5-Methoxyindolin-1-yl)ethan-1-one]

IC50 [1, 5]: 520 ± 50 nM
Compound: CC(=O)N1CCc2cc(C(F)(F)F)ccc21 [Compound 4u, 1-(5-(Trifluoromethyl)indolin-1-yl)ethan-1-one]

IC50 [1, 5]: 34 ± 10 nM
MLM Stability Cli [2]: 620 µL/min/mg protein
half-life [2, 4]: 2.2 min
Compound: CC(=O)N1CC2(CC2)c2cc(Cl)ccc21 [Compound 4z, 1-(5′-Chlorospiro[cyclopropane-1,3′-indolin]-1′-yl)ethan-1-one]

IC50 [1, 6]: 4400 ± 300 nM
Compound: CC(C)C(=O)N1CC2(CC2)c2c(Cl)cccc21 [Compound 5a, 1-(4′-Chlorospiro[cyclopropane-1,3′-indolin]-1′-yl)-2-methylpropan-1-one]

IC50 [1, 6]: 1000 ± 300 nM
MLM Stability Cli [2]: 200 µL/min/mg protein
half-life [2, 4]: 7 min
Compound: CS(=O)(=O)N1CC2(CC2)c2c(Cl)cccc21 [Compound 5b, 4′-Chloro-1'-(methylsulfonyl)spiro[cyclopropane-1,3′-indoline]]

IC50 [1, 6]: 8500 ± 2100 nM
Compound: CC(=O)N1CCOc2c(Cl)cccc21 [Compound 5e, 1-(8-Chloro-2,3-dihydro-4H-benzo[b][1,4]oxazin-4-yl)ethan-1-one]
